The values below are quoted from earlier work in patent US20220313671A1 (Chiesi Farmaceutici S.p.A., priority 2011, published 2022).

The structures appear in SMILES notation.

For the compound `CCCC(=O)OCOC(=O)C1=C(C)NC(C)=C(C(=O)OC)C1c1cccc(Cl)c1Cl` (stereo not drawn) [clevidipine], where the note is “rapid offset of activity”, the “full offset of activity” value was 5 to 15 min. Moreover, the onset of activity (rapid onset of activity) is 2 to 4 min. Also, the “return of blood pressure to pre-treatment levels” value (time after discontinuation of clevidipine) was 5 to 15 min.
